{
  "source": "PubChem BioAssay AID330",
  "about": "(DTP/NCI, 2004)",
  "tested_on": "P388 leukemia ip, CD2F1 mice, survival T/C",
  "assay": "NCI In Vivo Anticancer Drug Screen. Data for tumor model P388 Leukemia (intraperitoneal) in CD2F1 (CDF1) mice",
  "conditions": "endpoint: median survival time, higher = longer survival",
  "in_short": "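Mice carrying the transplanted tumor received test compound or vehicle. Survival was recorded in each group, and the value is the treated-group measurement divided by that of the vehicle-treated control group.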",
  "key": {"[1]": {"conditions": "dose: 50.0 mg/kg/injection, schedule: Q01DX005 (ip), vehicle: saline with Tween-80"}, "[2]": {"conditions": "dose: 100.0 mg/kg/injection, schedule: Q01DX005 (ip), vehicle: saline with Tween-80"}, "[3]": {"conditions": "dose: 200.0 mg/kg/injection, schedule: Q01DX005 (ip), vehicle: saline with Tween-80"}},
  "note": "Where “and” joins values, the source holds several entries; their conditions need not be identical. Equal values may be shown once. Inconclusive results and toxic doses are left out.",
  "data": [
    {"smiles": "CN(C)CC(CN(C)C)C(=O)c1ccc(Cl)c(Cl)c1", "values": [
      {"measurement": "T/C", "setting": "dose: 12.5 mg/kg/injection, schedule: Q01DX005 (ip), vehicle: saline", "result": "108 % of control"},
      {"measurement": "T/C", "setting": "dose: 25.0 mg/kg/injection, schedule: Q01DX005 (ip), vehicle: saline", "result": "105 % of control"},
      {"measurement": "T/C", "setting": "dose: 50.0 mg/kg/injection, schedule: Q01DX005 (ip), vehicle: saline", "result": "100 % of control and 104 % of control"}
    ]},
    {"smiles": "O=C(O)c1cc(-c2ccc(O)c(O)c2)nc2cc3ccccc3cc12", "values": [
      {"measurement": "T/C", "setting": "dose: 50.0 mg/kg/injection, schedule: Q01DX009 (ip), vehicle: Klucel (hydroxypropylcellulose) (HPC)", "result": "97 % of control"},
      {"measurement": "T/C", "setting": "dose: 100.0 mg/kg/injection, schedule: Q01DX009 (ip), vehicle: Klucel (hydroxypropylcellulose) (HPC)", "result": "108 % of control"},
      {"measurement": "T/C", "setting": "dose: 200.0 mg/kg/injection, schedule: Q01DX009 (ip), vehicle: Klucel (hydroxypropylcellulose) (HPC)", "result": "92 % of control"}
    ]},
    {"smiles": "C(=NCCC[Si]12OCCN(CCO1)CCO2)c1c[nH]c2ccccc12", "values": [
      {"measurement": "T/C", "setting": "dose: 50.0 mg/kg/injection, schedule: Q01DX005 (ip), vehicle: Klucel (hydroxypropylcellulose) (HPC)", "result": "104 % of control"},
      {"measurement": "T/C", "setting": "dose: 100.0 mg/kg/injection, schedule: Q01DX005 (ip), vehicle: Klucel (hydroxypropylcellulose) (HPC)", "result": "103 % of control"},
      {"measurement": "T/C", "setting": "dose: 200.0 mg/kg/injection, schedule: Q01DX005 (ip), vehicle: Klucel (hydroxypropylcellulose) (HPC)", "result": "102 % of control"}
    ]},
    {"smiles": "CC(C)(C)N1CC1C#N", "note": "(configuration not stated)", "values": [
      {"measurement": "T/C", "setting": "dose: 3.13 mg/kg/injection, schedule: Q01DX009 (ip), vehicle: saline", "result": "111 % of control"},
      {"measurement": "T/C", "setting": "dose: 6.25 mg/kg/injection, schedule: Q01DX009 (ip), vehicle: saline", "result": "104 % of control"},
      {"measurement": "T/C", "setting": "dose: 12.5 mg/kg/injection, schedule: Q01DX009 (ip), vehicle: saline", "result": "101 % of control"}
    ]},
    {"smiles": "CC1=NN(C(=O)c2ccncc2)C(=O)C1N=Nc1c(C)n(C)n(-c2ccccc2)c1=O", "note": "(configuration not stated)", "values": [
      {"measurement": "T/C", "setting": "dose: 50.0 mg/kg/injection, schedule: Q01DX009 (ip), vehicle: saline with Tween-80", "result": "102 % of control"},
      {"measurement": "T/C", "setting": "dose: 100.0 mg/kg/injection, schedule: Q01DX009 (ip), vehicle: saline with Tween-80", "result": "101 % of control"},
      {"measurement": "T/C", "setting": "dose: 200.0 mg/kg/injection, schedule: Q01DX009 (ip), vehicle: saline with Tween-80", "result": "99 % of control"}
    ]},
    {"smiles": "CC(C)C(C(=O)CCN(C)C)c1ccc(Cl)cc1", "note": "(configuration not stated)", "values": [
      {"measurement": "T/C", "setting": "[1]", "result": "116 % of control"},
      {"measurement": "T/C", "setting": "[2]", "result": "100 % of control"}
    ]},
    {"smiles": "Cc1cc(NS(=O)(=O)c2ccc(N=c3c4ccccc4n(C)c4ccccc34)cc2)no1", "values": [
      {"measurement": "T/C", "setting": "[1]", "result": "103 % of control"},
      {"measurement": "T/C", "setting": "[2]", "result": "102 % of control"},
      {"measurement": "T/C", "setting": "[3]", "result": "103 % of control"}
    ]},
    {"smiles": "NCCCn1ccc2c3ccccc3nc-2c1", "values": [
      {"measurement": "T/C", "setting": "dose: 12.5 mg/kg/injection, schedule: Q01DX009 (ip), vehicle: water", "result": "105 % of control"},
      {"measurement": "T/C", "setting": "dose: 25.0 mg/kg/injection, schedule: Q01DX009 (ip), vehicle: water", "result": "90 % of control"},
      {"measurement": "T/C", "setting": "dose: 50.0 mg/kg/injection, schedule: Q01DX009 (ip), vehicle: water", "result": "104 % of control"},
      {"measurement": "T/C", "setting": "dose: 100.0 mg/kg/injection, schedule: Q01DX009 (ip), vehicle: water", "result": "105 % of control"}
    ]},
    {"smiles": "Nc1cc2c(c[n+](CCCCCCCCCBr)c3ccccc23)c2ccccc12", "values": [
      {"measurement": "T/C", "setting": "dose: 1.56 mg/kg/injection, schedule: Q04DX003 (ip), vehicle: other", "result": "155 % of control"},
      {"measurement": "T/C", "setting": "dose: 3.13 mg/kg/injection, schedule: Q04DX003 (ip), vehicle: other", "result": "155 % of control"},
      {"measurement": "T/C", "setting": "dose: 6.25 mg/kg/injection, schedule: Q04DX003 (ip), vehicle: other", "result": "150 % of control"}
    ]},
    {"smiles": "Clc1cc(Cl)cc(N=Cc2cccs2)c1", "values": [
      {"measurement": "T/C", "setting": "dose: 50.0 mg/kg/injection, schedule: Q01DX009 (ip), vehicle: saline", "result": "100 % of control"},
      {"measurement": "T/C", "setting": "dose: 100.0 mg/kg/injection, schedule: Q01DX009 (ip), vehicle: saline", "result": "100 % of control"},
      {"measurement": "T/C", "setting": "dose: 200.0 mg/kg/injection, schedule: Q01DX009 (ip), vehicle: saline", "result": "98 % of control"}
    ]},
    {"smiles": "c1ccc2c(c1)Cc1c-2nc2ccccc2c1N1CCOCC1", "values": [
      {"measurement": "T/C", "setting": "dose: 25.0 mg/kg/injection, schedule: Q01DX005 (ip), vehicle: saline with Tween-80", "result": "100 % of control"},
      {"measurement": "T/C", "setting": "[1]", "result": "106 % of control and 93 % of control"},
      {"measurement": "T/C", "setting": "[2]", "result": "103 % of control and 112 % of control"},
      {"measurement": "T/C", "setting": "[3]", "result": "119 % of control"}
    ]},
    {"smiles": "Nc1nc2ncn(COC(CO)CO)c2c(=O)[nH]1", "values": [
      {"measurement": "T/C", "setting": "dose: 60.0 mg/kg/injection, schedule: Q01DX005 (ip), vehicle: saline with Tween-80", "result": "100 % of control"},
      {"measurement": "T/C", "setting": "dose: 120.0 mg/kg/injection, schedule: Q01DX005 (ip), vehicle: saline with Tween-80", "result": "98 % of control"},
      {"measurement": "T/C", "setting": "dose: 240.0 mg/kg/injection, schedule: Q01DX005 (ip), vehicle: saline with Tween-80", "result": "100 % of control"}
    ]},
    {"smiles": "O=C1C=CC(=O)C1=Cc1ccccc1", "values": [
      {"measurement": "T/C", "setting": "dose: 2.5 mg/kg/injection, schedule: Q04DX002 (ip), vehicle: saline with Tween-80", "result": "95 % of control"},
      {"measurement": "T/C", "setting": "dose: 5.0 mg/kg/injection, schedule: Q04DX002 (ip), vehicle: saline with Tween-80", "result": "97 % of control"}
    ]},
    {"smiles": "O=C1c2cccc3cccc(c23)C(=O)N1c1nccs1", "values": [
      {"measurement": "T/C", "setting": "[1]", "result": "100 % of control"},
      {"measurement": "T/C", "setting": "[2]", "result": "94 % of control"},
      {"measurement": "T/C", "setting": "[3]", "result": "90 % of control"}
    ]}
  ]
}
